# According to patent publication US10568892B2, “Cycloartane tetracyclic triterpenoid compound, preparation method therefor and use thereof” (Hefei Cosource Pharmaceuticals Inc., priority 2016, dated 2020):
# How the values were obtained:
# guinea pig heart = experiment: Atrial fibrillation induced by high- and low-potassium Langendorff perfusion of the guinea pig heart; conditions: for Incidence (%) of atrial fibrillation / Number of animals developing atrial fibrillation: within 60 min of low-potassium perfusion
# Excerpt: Method: a total of 24 guinea pigs were divided into 4 groups according to body weight, and were sacrificed. The heart was quickly taken out, and the blood was squeezed in the ice bath perfusion solution. The heart was quickly transferred in the Langendorff perfusion system, and the perfusion at a constant rate was started by turning on the oxygen-saturated perfusate. One end of the electrode was placed at the cardiac apex, and one end was placed at the right atrium (the position of the atrial appendage). The electrocardiogram was recorded on the computer.
# After the heart was stabilized, 10 min after the perfusion of high-K perfusate, blank vehicle, 0.1 μM, 1 μM, and 10 μM of Compound 369, 1 μM Amiodarone and Cyclovirobuxine D were simultaneously administrated and the high K perfusion was continued for 20 min, respectively. Then, the high K perfusion was removed to administrate the low-K perfusate, and the electrocardiogram was obtained at the same time to record whether there was atrial fibrillation within 60 min of low-potassium perfusion.
# [1] = Pharmacokinetics in Beagle canines; assay type: in vivo; conditions: dog, in vivo
# Experimental: Method: Six healthy male Beagle canines were selected and divided into two groups. 2 mg/kg of Compound 369 or cyclovirobuxine D was administrated intragastrically, respectively. Blood samples (about 2 mL) were collected from the limb venous of canines 0 h before administration as well as 0.25 h, 0.5 h, 1 h, 2 h, 4 h, 6 h, 8 h, and 12 h after administration. The concentrations of Compound 369 and cyclovirobuxine D in plasma samples were determined by LC-MS/MS, and the pharmacokinetic parameters were calculated by DAS.3.0 software.
# SD rat = experiment: Rat model of heart failure induced by adriamycin; assay type: in vivo
# Experimental: 2 mg/kg of adriamycin was injected through tail vein to a SD rat for modeling, once a week for 6 weeks. After the modeling was completed, intragastrical administration of Compound 369 at low (3 mg/kg) and high (9 mg/kg) doses was carried out daily for 4 weeks. In the negative control group, the same volume of normal saline was injected through the tail vein once a week for 6 weeks, thereafter the same volume of vehicle was intragastrically administrated daily for 4 weeks. After the end of the administration, the blood pressure was measured by the carotid artery intubation. The left ventricular end diastolic pressure (LVEDP), left ventricular systolic pressure (LVSP), maximal rate of left ventricular systolic pressure (+dp/dt max), and maximal rate of left ventricular diastolic pressure (−dp/dt max) were recorded, and the average values thereof were calculated.
# After the hemodynamic indexes were measured, the chest was opened and the heart and lung were quickly taken out. They were immediately placed in the normal saline at 4° C. to wash down the remaining blood. The fats, blood vessels and atrial tissues on the heart were discarded. The heart was sucked dry by the filter paper, and accurately weighed using the electronic balance to record the heart weight. The ratio of heart weight to body weight (HW/BW), i.e., the heart mass index (HMI), was calculated.
# [2] = Single-dose toxicity (MTD) in KM mice; assay type: in vivo; conditions: in vivo, po; KM mouse; single intragastrical administration; read-out: Maximum tolerance dose (MTD)
# Excerpt: (§1) The results of the experimental study on the toxicity of Compound 369 administrated through a single intravenous or intragastrical administration in SD rats and KM mice are shown in Table 9.
# SD rats = experiment: Rat myocardial ischemia model with coronary artery ligation and reperfusion (arrhythmia incidence); assay type: in vivo; conditions: for Death (%) / Death n / Ventricular fibrillation (%) / Ventricular fibrillation n / Ventricular premature beat (%) / Ventricular premature beat n / Ventricular tachycardia (%) / Ventricular tachycardia n: injection (sublingually) 5 min before ischemia
# Excerpt: Method: SD rats were anesthetized with pentobarbital, and a cervical midline incision was made to separate and cut off the trachea such that it was connected to a respirator. The skin was cut along the midline of the left clavicle of the rat, and the chest was opened between the left third and fourth ribs to gently squeeze out the heart. The pericardium was opened, the needle was inserted at the left edge of the pulmonary artery cone and 2 mm at the lower edge of the left atrial appendage. The 6-0 non-invasive suture was threaded through the superficial myocardium, with the left anterior descending coronary artery (LAD) located thereon. After stabilization for 5 min, a double-layer plastic cannula was put on, and the cable tie was tighten to complete the myocardial ischemia induced by left coronary artery occlusion. The criterion for myocardial ischemia is the occurrence of myocardial infarction (St-segment ran up or T-wave was shown as high sharp wave) in the electrocardiogram and the presence of local cyanosis in the heart. After 5 min of myocardial ischemia, the inner cannula was withdrawn, that is, the wire knot was released for reperfusion, and the electrocardiogram of reperfusion in the rat was recorded.
# The administration was performed at 5 min before the ischemia by coronary artery ligation, and the administration mode was injection administration (sublingually).
# [3] = Single-dose toxicity (MTD) in SD rats; assay type: in vivo; conditions: in vivo, SD rat, read-out: Maximum tolerance dose (MTD)
# Excerpt: as §1
# [4] = High dose 9 mg/kg intragastrical daily for 4 weeks
# [5] = Low dose 3 mg/kg intragastrical daily for 4 weeks
smiles,measurement,setting,value
"CN[C@H]1CC[C@]23C[C@]24CC[C@]2(C)C(C(C)=O)=CC[C@@]2(C)[C@@H]4CC[C@H]3C1(C)C [Compound 369, (3β,5α)-4,4,14-trimethyl-3-(methylamino)-9,19-cyclopregnan-16-en-20-one]",Number of animals developing atrial fibrillation compared to the vehicle group (in words),"guinea pig heart; 0.1 μM to 10 μM, dose-dependent",significantly decreased
same,Incidence (%) of atrial fibrillation,guinea pig heart; 0.1 μM,80%
same,Number of animals developing atrial fibrillation,guinea pig heart; 0.1 μM,4
same,Incidence of atrial fibrillation for ex vivo heart vs cyclovirobuxine D (in words),guinea pig heart; 1 μM,significantly lower
same,Incidence (%) of atrial fibrillation,guinea pig heart; 1 μM,33%
same,Number of animals developing atrial fibrillation,guinea pig heart; 1 μM,2
same,Incidence (%) of atrial fibrillation,guinea pig heart; 10 μM,0%
same,Number of animals developing atrial fibrillation,guinea pig heart; 10 μM,0
same,Exposures in plasma (AUC and Cmax values) vs cyclovirobuxine D (in words),[1],higher than that of cyclovirobuxine D
same,Half-life (T1/2) vs cyclovirobuxine D (in words),[1],shorter than that of cyclovirobuxine D
same,AUC(0-t),"[1]; male, Beagle, po, 2 mg/kg",505 ng·h/mL
same,Cmax,"[1]; male, Beagle, po, 2 mg/kg",43.4 ng/mL
same,Tmax,"[1]; male, Beagle, po, 2 mg/kg",2.67 h
same,half-life,"[1]; male, Beagle, po, 2 mg/kg",11.1 h
same,Therapeutic effect on heart failure induced by adriamycin (in words),SD rat; 3 and 9 mg/kg intragastrical daily for 4 weeks,a certain therapeutic effect
same,ADBP,SD rat; [4],47.0 ± 17.1 mmHg
same,ASBP,SD rat; [4],84.9 ± 13.3 mmHg
same,BW,SD rat; [4],380.3 ± 24.8 g
same,HW,SD rat; [4],1185.0 ± 135.3 mg
same,HW/BW,SD rat; [4],3.11 mg/g
same,LVEDP,SD rat; [4],−14.2 ± 8.8 mmHg
same,LVSP,SD rat; [4],97.3 ± 8.9 mmHg
same,dp/dtmax,SD rat; [4],2402.3 ± 427.6 mmHg/s
same,−dp/dt max,SD rat; [4],−2098.7 ± 345.9 mmHg/s
same,ADBP,SD rat; [5],40.4 ± 15.3 mmHg
same,ASBP,SD rat; [5],80.8 ± 17.3 mmHg
same,BW,SD rat; [5],308.5 ± 34.65 g
same,HW,SD rat; [5],1007.4 ± 145.3 mg
same,HW/BW,SD rat; [5],3.27 mg/g
same,LVEDP,SD rat; [5],−12.7 ± 10.0 mmHg
same,LVSP,SD rat; [5],96.5 ± 9.1 mmHg
same,dp/dtmax,SD rat; [5],2317.7 ± 715.4 mmHg/s
same,−dp/dt max,SD rat; [5],−2013.5 ± 405.4 mmHg/s
same,MTD,[2],1000 mg/kg
same,Death (%),SD rats; 1 mg/kg,38%
same,Death n,SD rats; 1 mg/kg,3
same,Ventricular fibrillation (%),SD rats; 1 mg/kg,63%
same,Ventricular fibrillation n,SD rats; 1 mg/kg,5
same,Ventricular premature beat (%),SD rats; 1 mg/kg,100%
same,Ventricular premature beat n,SD rats; 1 mg/kg,8
same,Ventricular tachycardia (%),SD rats; 1 mg/kg,100%
same,Ventricular tachycardia n,SD rats; 1 mg/kg,8
same,Death (%),SD rats; 10 mg/kg,0 (0) %
same,Death n,SD rats; 10 mg/kg,0 (0)
same,Ventricular fibrillation (%),SD rats; 10 mg/kg,14%
same,Ventricular fibrillation n,SD rats; 10 mg/kg,1
same,Ventricular premature beat (%),SD rats; 10 mg/kg,86%
same,Ventricular premature beat n,SD rats; 10 mg/kg,6
same,Ventricular tachycardia (%),SD rats; 10 mg/kg,71%
same,Ventricular tachycardia n,SD rats; 10 mg/kg,5
same,Death (%),SD rats; 30 mg/kg,0 (0) %
same,Death n,SD rats; 30 mg/kg,0 (0)
same,Ventricular fibrillation (%),SD rats; 30 mg/kg,0 (0) %
same,Ventricular fibrillation n,SD rats; 30 mg/kg,0 (0)
same,Ventricular premature beat (%),SD rats; 30 mg/kg,83%
same,Ventricular premature beat n,SD rats; 30 mg/kg,5
same,Ventricular tachycardia (%),SD rats; 30 mg/kg,17%
same,Ventricular tachycardia n,SD rats; 30 mg/kg,1
same,"Numbers of animals (incidences) with ventricular premature beat, ventricular tachycardia, ventricular fibrillation, and death vs vehicle (in words)","SD rats; 1 to 30 mg/kg, dose-response relationship",lower
same,MTD,"[3]; po, single intragastrical administration",1000 mg/kg
same,MTD,[3]; single intravenous injection,45 mg/kg
